Tests used:
TEM-1 β-lactamase [1] = biological target: T1, TEM-1 β-lactamase (Escherichia coli, UniProt P62593); format: biochemical; conditions: promiscuous aggregating inhibitors, printed hydrogel array, starting concentration 100 μM
Experimental: Images were taken with a Canon DSLR camera (operated in manual focus mode without flash) after 25 min. […] Extracted images were inverted and converted to 8 bit grayscale images. […] Calculation of IC50 values was carried out in OriginPro by plotting the calculated percentage inhibition against the added inhibitor concentration.
Intensity distributions are measured using dynamic light scattering (normalized to maximum intensity).

TEM-1 β-lactamase [2] = biological target: T1, TEM-1 β-lactamase; format: biochemical; conditions: promiscuous aggregating inhibitors
[3] = Aggregate size and polydispersity by dynamic light scattering; format: physicochemical; conditions: 100 μM solutions, DLS
Experimental: Following, to assess the capacity of the printed hydrogels to differentiate between specific and non-specific inhibition, the confirmed promiscuous inhibitors rottlerin and BIS IX (both kinase inhibitors) and tetraiodophenolphthalein (TIPT, another established aggregate forming compound) were tested against TEM-1 β-lactamase (an isoform of β-lactamase) both in solution (modeling a conventional microplate assay) and using a printed hydrogel array. […] In this way, the size selectivity of the printed hydrogel layer excludes the promiscuous inhibitors from accessing the enzyme encapsulated in the hydrogel and thus avoids the false positive hits observed in solution assays. […] Intensity distributions are measured using dynamic light scattering (normalized to maximum intensity).

proteinase K = proteinase K (Parengyodontium album, UniProt P06873); experiment: Protease protection studies; format: physicochemical; conditions: 2 hours
Experimental: 10 μL of a 2 mg/mL proteinase K solution (prepared in 10 mM PBS and 1 mM CaCl2) was pipetted onto the printed enzyme samples both with and without hydrogel encapsulation. The samples were incubated in a closed container for 2 hours at room temperature, after which substrate solutions were pipetted onto the treated samples at the volumes listed in Table 1. Image acquisition and analysis was performed as described for the entrapment studies. The intensity of each sample was measured and presented as a ratio of the corresponding control image (untreated with protease).

[4] = Long-term stability studies (storage at room temperature); format: physicochemical; conditions: hydrogel-entrapped enzyme, at least three months
Experimental: Printed enzyme samples were stored in a closed, dark container at room temperature for time periods ranging from 7 days up to 3 months. Image acquisition and analysis was performed as described previously for the entrapment and proteinase K degradation studies. The intensity of each sample was measured and presented as a ratio of the corresponding control image (freshly printed).

T1 sequence (P62593 24-286 limits assumed): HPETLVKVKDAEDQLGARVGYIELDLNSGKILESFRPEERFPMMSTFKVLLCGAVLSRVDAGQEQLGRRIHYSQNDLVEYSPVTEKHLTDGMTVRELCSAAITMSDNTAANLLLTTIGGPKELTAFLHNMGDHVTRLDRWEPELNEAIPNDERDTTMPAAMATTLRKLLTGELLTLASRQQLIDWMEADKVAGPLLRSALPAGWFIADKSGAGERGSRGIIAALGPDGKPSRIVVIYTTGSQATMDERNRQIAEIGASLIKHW
proteinase K, sequence (P06873 106-384, species assumed): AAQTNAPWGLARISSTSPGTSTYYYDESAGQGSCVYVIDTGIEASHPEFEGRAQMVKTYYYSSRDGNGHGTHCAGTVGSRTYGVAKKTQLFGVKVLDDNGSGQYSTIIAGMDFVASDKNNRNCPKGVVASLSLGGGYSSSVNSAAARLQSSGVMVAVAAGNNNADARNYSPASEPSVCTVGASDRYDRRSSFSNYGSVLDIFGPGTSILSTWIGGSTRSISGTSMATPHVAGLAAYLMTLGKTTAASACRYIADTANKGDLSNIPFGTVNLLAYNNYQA

Molecule | Inhibition of β-lactamase in the hydrogel-based assay (TEM-1 β-lactamase [1]) | Inhibition of β-lactamase in the solution-based assay (TEM-1 β-lactamase [2]) | Aggregate size [3] [nm] | Polydispersity [3] | Activity retained after proteinase K (proteinase K; enzyme printed directly on nitrocellulose without hydrogel (printed alone)) [%] | Activity retained after proteinase K (proteinase K; enzyme printed with POH in the absence of gel formation) [%] | Activity retained after storage [4] [%]
Cn1cc(C2=C(c3cn(CCCSC(=N)N)c4ccccc34)C(=O)NC2=O)c2ccccc21 [BIS IX] | no specific inhibition | inhibited β-lactamase | 365 ± 9 | 0.36 ± 0.02 | – | – | –
CC(=O)c1c(O)c(C)c(O)c(Cc2c(O)c3c(c(C(=O)/C=C/c4ccccc4)c2O)OC(C)(C)C=C3)c1O [Rottlerin, rottlerin] | no specific inhibition | inhibited β-lactamase | 188 ± 1 | 0.24 ± 0.01 | – | – | –
alkaline phosphatase | – | – | – | – | ~40 | > 80 | ~100
